# Laboratory results as given in patent US9447083B2, “N-acylhydrazone derivatives for selective T cell inhibitor and anti-lymphoid malignancy drug” (CHONG KUN DANG PHARMACEUTICAL CORP., priority 2012, dated 2016).
# What was measured:
# Molt4 = test: Apoptosis of lymphoid malignancy cell lines: Molt4; type: cell-based; conditions: Homo sapiens, MOLT-4, 24 h, read-out: Administration Dose (mean ± SD, μmol/L) Lethal Dose 50 (Apoptosis)
# Procedure: (§1) Each of the acute T cell leukemia cell lines Jurkat, Molt4 and CCRF-CEM, the acute B cell leukemia cell line Raji and the […] cell lines KMS11, KMS12BM, KMS26, KMS28BM, and IM9 was re-suspended in 10% FBS-containing RPMI medium at a concentration of 1.5×10^5 cells/mL, and 200 μL of each of the cell suspensions was cultured in a flat bottom 96-well plate (Costar). The acute NK cell lymphoma cell line NK-92MI was re-suspended in α-MEM medium (supplemented with 20% FBS, 1×MEM vitamine solution, 50 μM 2-mercaptoethanol and 1× penicillin/streptomycin) at a concentration of 1.5×10^5 cells/mL, and 200 μL of the cell suspension was cultured in a flat bottom 96-well plate. The cells in each well was treated with 10 μL of each of 0.1, 0.25, 0.5, 0.75 and 1 μM of the compound diluted with RPMI medium, followed by that the cells were incubated in a 5% CO2 incubator at 37° C. for 24 hours. In a vehicle control group, cells were treated with 10 μL of medium containing 0.05% dimetylsulfoxide (DMSO, Sigma).
# (§2) The cells were collected, and then the apoptosis thereof was analyzed by a flow cytometer after staining with Annexin V-7-AAD. The incubated cells were collected, placed in a 5-mL FACS tube (BD Falcon) and washed with 1 mL of fluorescence activated cell sorting (FACS) buffer (1%. FBS and 0.1% sodium azaide in PBS). The cells were re-suspended in 0.1 mL of FACS buffer, followed by that the cells were treated and stained with phycoerythrin-Annexin V at room temperature for 10 minutes. After 10 minutes of staining, the cells were treated and stained with 7-AAD at room temperature for 5 minutes. The stained cells were suspended in 0.3 mL of FACS buffer, and then analyzed by a flow cytometer. […] Thus, compounds 065, 108, 229 and 457 of the present invention can be used as a novel anti-lymphoid malignancy drug.
# [1] = test system: alloantigen-specific T cells; test: Inhibitory effect on alloantigen-specific T cells in vivo (donor T cells in spleen of irradiated BDF1 mice); parameters: species or system mouse; conditions: for number of alloantigen-specific T cells in the spleen: compared to vehicle, concentration-dependent
# Procedure: Lymph nodes and spleens were aseptically collected from normal C57BL/6-Ly5.1 mice (8-12 week old, female, 20±2 g), and T cells were isolated in the same manner as described in Experimental Example 2, and were then re-suspended in PBS at a concentration of 1×10^8 cells/mL. Normal BDF1 mice (10-12 week old, female, 20-23 g) were irradiated with 950 rad of γ radiation, and then 100 μL of the above-prepared T cells of C57BL/6-Ly5.1 mice were injected into the tail vein of the BDF1 mice. Compound 229 was completely dissolved in a Cremophor EL (Sigma)/ethanol mixture (1:1, v/v) in an amount corresponding to 15% (v/v) of the administration volume for intraperitoneal administration and in an amount corresponding to 7.5% (v/v) for oral administration, and the compound solution was diluted in PBS. The dilution was administered intraperitoneally (200 μL/mouse) or orally (500 μL/mouse) every day for 5 days from the day of the cell injection. A vehicle control group was administered with a Cremophor EL-ethanol-PBS mixture in the same ratio and volume as those of the test group. At 6 days after the cell injection, the mice were sacrificed, the spleens were collected from the mice, and erythrocyte-free spleen cells were made in the same manner as described in Experimental Example 2. The spleen cells were stained with trypan blue, and the number of viable cells per organ of each animal was counted. Then, the spleen cells were put into 5 mL FACS tubes and washed with 1 mL of FACS buffer. The cells were re-suspended in 0.1 mL of FACS buffer, and then treated with […] of mouse immunoglobulin G in order to prevent the non-specific binding of antibody, followed by incubation at 4° C. for 15 minutes. […] The stained cells were washed twice with 1 mL of FACS buffer, re-suspended in 0.3 mL of FACS buffer and analyzed by a flow cytometer. The number of donor T cells in the spleen was determined by measuring the ratio (%) of a donor T cell fraction (Ly5.1^+ cells) relative to viable cells per spleen.
# KMS28BM = test: Apoptosis of lymphoid malignancy cell lines: KMS28BM; type: cell-based; conditions: KMS-28BM, Multiple myeloma, 24 hours, read-out: Administration Dose (mean ± SD, μmol/L) Lethal Dose 50 (Apoptosis)
# Procedure: as §1, with “In a vehicle control group, cells were treated with 10 μL of medium containing 0.05% dimetylsulfoxide (DMSO, Sigma).” left out
# The cells were collected, and then the apoptosis thereof was analyzed by a flow cytometer after staining with Annexin V-7-AAD. The incubated cells were collected, placed in a 5-mL FACS tube (BD Falcon) and washed with 1 mL of fluorescence activated cell sorting (FACS) buffer (1%. FBS and 0.1% sodium azaide in PBS). […] The stained cells were suspended in 0.3 mL of FACS buffer, and then analyzed by a flow cytometer. […]
# [2] = test system: Experimental Autoimmune Encephalomyelitis (EAE); test: Experimental Autoimmune Encephalomyelitis (EAE) model of multiple sclerosis; type: in vivo, mouse
# Procedure: At the first day of induction, myelin oligodendrocyte glycoprotein35-55 (MOG35-55, Peptron) (200 ug), mycobacterium tuberculosis (Difco, Cat No. 231141) (500 μg) and complete Freund's adjuvant (Sigma Aldrich, Cat No. F5506) were mixed with each other and immersed for 5 minutes. 0.1 mL of the immersed peptide was injected subcutaneously into both the flanks of each of C57BL/6 mice (9 week old, female, 18±2 g), followed by that […] pertussis toxin (Sigma Aldrich, Cat No. P2980) (200 ng) was injected by intravenously. At 2 days, the same amount of pertussis toxin was administered intravenously. Whether the immersion leaked from the injected portion of the mice was checked, and whether EAE was induced was also examined by visual observation from 7 days.
# Compound 229 and Fingolimod that is currently clinically used for the treatment of multiple sclerosis were completely dissolved in a Cremophor EL-ethanol mixture (1:1, v/v) in an amount corresponding to 7.5% (v/v) of the administration volume, and the compound solution was diluted in PBS. The two groups of the mice were administered orally with 200 μL of the diluted solution of compound 229 at each doses of 25 and 50 mg/kg separately, and the third group of the mice was administered orally with 200 μL of the diluted solution of fingolimode at a dose of 1 mg/kg on a daily basis from 17 days to 37 days (for total 21 times) after starting of the experiment. In a vehicle control group, 200 μL of a Cremophor EL-ethanol-PBS mixture (3.75:3.75:92.5, v/v/v) was administered to each mouse in the same manner as the treated group. The index of EAE was recorded daily based on visual observation using a severity index system (6-point (0 to 5) scale) from 7 days of the experiment. The symptoms of multiple sclerosis were evaluated based on the following criteria:
# 2: limp tail and hind limb weakness;
# 4: hind limb paralysis and forelimb weakness; and […]
# IM9 = test: Apoptosis of lymphoid malignancy cell lines: IM9; type: cell-based; conditions: Homo sapiens, IM-9, 24 h, read-out: Administration Dose (mean ± SD, μmol/L) Lethal Dose 50 (Apoptosis)
# Procedure: as §1, §2
smiles,measurement,setting,value
"Cc1cc(C)c(OCC(=O)N/N=C/c2ccc3cc[nH]c3c2)c(C2CCOC2)c1 (stereo not shown) [Compound 229, (E)-N′-((1H-indol-6-yl)methylene)-2-(2,4-dimethyl-6-(tetrahydrofuran-3-yl)phenoxy)acetohydrazide]",EC50,Molt4,1.3 ± 0.05 µmol/L
same,number of alloantigen-specific T cells in the spleen,[1]; administered intraperitoneally every day for 5 days,significantly decreased
same,number of alloantigen-specific T cells in the spleen,[1]; administered orally every day for 5 days,significantly decreased
same,proliferation of T cells that responded to the alloantigen in vivo,[1]; dose of 50 mg/kg,completely inhibited
same,EC50,KMS28BM,0.49 ± 0.08 µmol/L
same,"severity index (EAE, 0 to 5 scale)","[2]; 25 mg/kg orally daily from 17 to 37 days, at 17 days (start of administration)",3±1
same,"severity index (EAE, 0 to 5 scale)","[2]; 25 mg/kg orally daily from 17 to 37 days, at 39 days, vehicle 2.5±0.75",1.25±0.75
same,"severity index (EAE, 0 to 5 scale)","[2]; 25 mg/kg orally daily from 17 to 37 days, at 55 days",1.17±0.75
same,"severity index (EAE, 0 to 5 scale)","[2]; 25 mg/kg orally daily from 17 to 37 days, at 101 days, vehicle 2.33±0.25",1.83±0.5
same,"severity index (EAE, 0 to 5 scale)","[2]; 50 mg/kg orally daily from 17 to 37 days, at 17 days (start of administration)",3±0.75
same,"severity index (EAE, 0 to 5 scale)","[2]; 50 mg/kg orally daily from 17 to 37 days, at 39 days, vehicle 2.5±0.75",0.9±0.25
same,"severity index (EAE, 0 to 5 scale)","[2]; 50 mg/kg orally daily from 17 to 37 days, at 101 days, vehicle 2.33±0.25",0.63±0.25
same,EC50,IM9,0.9 ± 0.03 µmol/L
